Measurements from patent US12569434B2, “Formulations of Nebivolol” (EXTROVIS AG, priority 2020, dated 2026).

How the values were obtained:
[1] = format: physicochemical; conditions: open air exposure, 50° C. for 2 Weeks and 40° C./7.5% RH for 1 month
Method: Drug-Excipient compatibility study was carried with excipients such as mannitol, maltitol, dextrates, povidone, methyl paraben, propyl paraben, citric acid, sodium citrate, sodium saccharin. The study was carried out in clear glass vials with open air exposure at stress conditions 50° C. for 2 Weeks and 40° C./[…] (relative humidity) for 1 month.

[2] = format: physicochemical; conditions: solution in propylene glycol, pH 3 to 7, 50° C. for 1M and 40° C./75% RH for 6M
Method: To evaluate the stability of Nebivolol in suitable liquid vehicle or solubilizer at different pH conditions, pH stability study was performed using 0.1N HCL/0.1N NaOH for pH adjustment. Propylene glycol was used as solubilizer to dissolve Nebivolol to prepare the stock solution. The stock solution was added to water and adjusted the pH with 0.1N HCL/0.1N NaOH at different pH ranging from 3 to 7.

## Cl.OC(CNCC(O)C1CCc2cc(F)ccc2O1)C1CCc2cc(F)ccc2O1 (racemic) [Nebivolol HCl, (1RS,1′RS)-1,1′-[(2RS,2′SR)-bis(6-fluoro-3,4-dihydro-2H-1-benzopyran-2-yl)]-2,2′-iminodiethanol hydrochloride]
[1]
  Stability of Nebivolol with excipients: stable
  desfluoro impurity: within the specification limits
[2]
  Stability of Nebivolol: stable
  desfluoro Nebivolol impurity: within the specification limits
